Measurements published in patent US8268961B2, “Antibacterial peptides and analogues thereof” (Universita Degli Studi di Siena, priority 2004, dated 2012).
Positions of bridges follow the written chain, without caps; N, C: chain ends. Chains are numbered I, II in the order given. No end group written: not given here.

Tested on: murine macrophage cells J774 A.1
Test: Cytotoxicity test by MTT
Format: cell-based, mouse
Description: The cytotoxicity of antibacterial MAP peptides was evaluated on different eukaryotic cell lines by a colorimetric assay (MTT). This assay measures the cells' ability to convert a soluble tetrazolium salt into an insoluble precipitate: formazan. The cytotoxicity of M1 was evaluated on murine macrophagic cells (J774 A.1), murine myeloma cells (SPO) and Chinese hamster ovary epithelium cells (CHO K1). As shown FIG. 4, even at high concentrations (1 mg/ml) M1 cytotoxicity on CHO K1 cells and on SPO cells is low (percent survival is 80-90%).
For cytotoxicity tests, different cell lines were used: murine myeloma cells SPO, hamster ovary epithelium cells CHO K 1, murine macrophage cells J774 A.1 and human keratinocytes HaCaT. The cells were plated in medium in RPMI 1640 (SPO and CHO K 1) and DMEM (J774 A.1 and HaCaT) with antibiotics and bovine foetal serum at 10%, in 96-well plates at the concentration of 6×10^4 (SPO, CHO K1 and J774 A.1) and 3×10^4 (HaCaT). Peptides, previously filtered with a 0.2 μm filter disk (Whatman), were added at various concentrations to the different cell lines and left in incubation over night at 37° C. Cell viability was determined adding the MTT tetrazolium salt at the concentration of 0.5 mg/ml and incubating for 90 min. The cells were solubilised with a solution at pH 4.5 containing SDS 10% and dimethylformamide 45% and read at the dual wavelength of 595/650 nm with a plate reader.

Q: What does the source list for “I: QKKIRVRLSAKKA-OH / II: QKKIRVRLSAK / III: QKKIRVRLSA / IV: QKKIRVRLSA (amide I:11-IV:C, I:12-II:C, II:11-III:C) [M6, QKKIRVRLSA]”?
A: Concentration at and over which a drop in cell viability was evident (MTT): ≥ 125 µg/mL; Vitality of J774 A.1 cells as the concentration of MAP peptides increases (MTT): decreases
